Assay [1] deals with T1, BAZ2B (Homo sapiens, UniProt Q9UIF8).
T1 sequence (Q9UIF8 2060-2164 limits assumed): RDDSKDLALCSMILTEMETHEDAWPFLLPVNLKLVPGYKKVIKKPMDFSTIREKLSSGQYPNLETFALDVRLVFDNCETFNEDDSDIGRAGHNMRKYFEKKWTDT
In words: BROMOscan ligand-binding assay.
From the text: (§2) BROMOscan is a binding assay based on the well-known KINOMEscan technology. This assay measures the binding of a DNA-tagged bromodomain to an immobilized BRD ligand. If an inhibitor is present, it will compete with the bromodomain binding to the immobilized ligand, resulting in reduction of a quantitative PCR (qPCR) signal in a dose-dependent manner.

Assay [2] addresses BRD2(1,2) (Homo sapiens, UniProt P25440). In words: BROMOscan ligand-binding assay.
From the text: as §2
Assay [3] concerns the target BRD4(fl) (Homo sapiens, UniProt O60885). In words: BROMOscan ligand-binding assay.
From the text: as §2
For assay [4], the target named is PBRM1(2) (Homo sapiens, UniProt Q86U86). In words: BROMOscan ligand-binding assay.
PBRM1(2), sequence (Q86U86 177-287 limits assumed): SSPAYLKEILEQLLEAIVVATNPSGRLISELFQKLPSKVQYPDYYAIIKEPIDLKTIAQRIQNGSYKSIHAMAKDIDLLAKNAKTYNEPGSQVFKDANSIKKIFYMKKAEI
From the text: as §2
Assay [5] deals with WDR9(2) (Homo sapiens, UniProt Q9NSI6). In words: BROMOscan ligand-binding assay.
WDR9(2), sequence (Q9NSI6 1313-1418 limits assumed): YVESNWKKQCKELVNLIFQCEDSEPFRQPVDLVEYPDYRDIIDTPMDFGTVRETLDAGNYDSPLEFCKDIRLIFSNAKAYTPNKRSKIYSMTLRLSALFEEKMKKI
From the text: as §2
The target of assay [6] is T2, DNMT1 (Homo sapiens, UniProt P26358).
T2 construct: purchased DiscoverX BROMOscan (bromodomains); SGC in-house methyltransferase panel
T2 sequence (P26358 whole entry): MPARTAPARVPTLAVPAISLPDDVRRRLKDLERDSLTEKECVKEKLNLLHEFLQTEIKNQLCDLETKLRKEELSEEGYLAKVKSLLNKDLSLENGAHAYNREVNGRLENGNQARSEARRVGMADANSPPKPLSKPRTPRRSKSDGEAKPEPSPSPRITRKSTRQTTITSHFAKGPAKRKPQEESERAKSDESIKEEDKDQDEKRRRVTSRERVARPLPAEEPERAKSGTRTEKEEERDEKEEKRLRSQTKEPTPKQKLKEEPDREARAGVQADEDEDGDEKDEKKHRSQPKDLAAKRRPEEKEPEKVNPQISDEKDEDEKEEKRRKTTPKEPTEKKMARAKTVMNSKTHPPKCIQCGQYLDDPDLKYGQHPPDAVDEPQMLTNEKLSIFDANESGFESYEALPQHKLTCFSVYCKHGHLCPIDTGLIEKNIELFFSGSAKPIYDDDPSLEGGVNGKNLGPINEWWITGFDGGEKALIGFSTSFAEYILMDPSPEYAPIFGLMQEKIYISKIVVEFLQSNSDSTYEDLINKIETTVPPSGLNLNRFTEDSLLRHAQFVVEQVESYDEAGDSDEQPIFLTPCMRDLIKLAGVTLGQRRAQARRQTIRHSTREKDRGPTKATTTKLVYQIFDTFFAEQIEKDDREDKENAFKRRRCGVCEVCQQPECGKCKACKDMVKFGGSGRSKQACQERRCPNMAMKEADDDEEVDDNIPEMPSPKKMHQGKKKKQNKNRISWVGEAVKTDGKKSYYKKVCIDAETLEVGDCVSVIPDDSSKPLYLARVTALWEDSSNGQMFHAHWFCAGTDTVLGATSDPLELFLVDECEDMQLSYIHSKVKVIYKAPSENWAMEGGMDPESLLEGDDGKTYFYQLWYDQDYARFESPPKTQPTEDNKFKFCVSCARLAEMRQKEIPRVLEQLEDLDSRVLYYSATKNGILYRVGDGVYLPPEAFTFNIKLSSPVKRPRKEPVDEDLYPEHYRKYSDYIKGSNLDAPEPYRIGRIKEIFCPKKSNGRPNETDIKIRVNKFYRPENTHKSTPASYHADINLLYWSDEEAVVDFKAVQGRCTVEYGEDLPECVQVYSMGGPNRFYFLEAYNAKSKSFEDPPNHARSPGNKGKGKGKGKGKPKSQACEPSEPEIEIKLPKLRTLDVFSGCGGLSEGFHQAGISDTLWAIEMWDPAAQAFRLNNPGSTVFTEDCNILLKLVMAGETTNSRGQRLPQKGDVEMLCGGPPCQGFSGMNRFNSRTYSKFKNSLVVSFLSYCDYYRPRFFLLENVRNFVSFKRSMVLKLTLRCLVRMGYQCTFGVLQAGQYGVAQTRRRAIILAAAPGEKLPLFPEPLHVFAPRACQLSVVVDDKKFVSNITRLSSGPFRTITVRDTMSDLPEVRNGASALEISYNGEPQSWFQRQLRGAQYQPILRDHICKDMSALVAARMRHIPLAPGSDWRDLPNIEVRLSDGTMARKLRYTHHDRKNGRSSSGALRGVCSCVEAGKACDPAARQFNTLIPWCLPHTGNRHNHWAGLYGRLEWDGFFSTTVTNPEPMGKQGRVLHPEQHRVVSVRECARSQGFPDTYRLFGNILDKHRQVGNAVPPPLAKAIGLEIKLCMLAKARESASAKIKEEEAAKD
In words: Methyl transferase scintillation proximity assay. In kind it is biochemical. Conditions: average of two measurements, read-out: MTases Inhibition (%). In a few lines: (§1)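 Scintillation proximity format using ^3H-SAM as methyl donor; substrate biotinylated. Levels of both near apparent Km. Activity expressed relative to compound-free (100%) and enzyme-free (0%) counts.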

Assay [7] has as its target T3, DNMT3A/3L (Homo sapiens, UniProt Q9Y6K1).
T3 construct: purchased DiscoverX BROMOscan (bromodomains); SGC in-house methyltransferase panel
In words: Methyl transferase scintillation proximity assay. As to conditions: average of two measurements, read-out: MTases Inhibition (%). In kind it is biochemical. In a few lines: as §1
Background: In a scintillation proximity assay essentially only radioactivity close to the scintillant gives light.

For assay [8], the target named is T4, MLL1 (Trimeric) (Homo sapiens, UniProt Q03164).
T4 construct: purchased DiscoverX BROMOscan (bromodomains); SGC in-house methyltransferase panel
In words: Methyl transferase scintillation proximity assay. As to conditions: average of two measurements, read-out: MTases Inhibition (%). In kind it is biochemical. In a few lines: as §1

Assay [9] addresses T5, NSD3 (Homo sapiens, UniProt Q9BZ95).
T5 construct: purchased DiscoverX BROMOscan (bromodomains); SGC in-house methyltransferase panel
T5 sequence (Q9BZ95 1-1437): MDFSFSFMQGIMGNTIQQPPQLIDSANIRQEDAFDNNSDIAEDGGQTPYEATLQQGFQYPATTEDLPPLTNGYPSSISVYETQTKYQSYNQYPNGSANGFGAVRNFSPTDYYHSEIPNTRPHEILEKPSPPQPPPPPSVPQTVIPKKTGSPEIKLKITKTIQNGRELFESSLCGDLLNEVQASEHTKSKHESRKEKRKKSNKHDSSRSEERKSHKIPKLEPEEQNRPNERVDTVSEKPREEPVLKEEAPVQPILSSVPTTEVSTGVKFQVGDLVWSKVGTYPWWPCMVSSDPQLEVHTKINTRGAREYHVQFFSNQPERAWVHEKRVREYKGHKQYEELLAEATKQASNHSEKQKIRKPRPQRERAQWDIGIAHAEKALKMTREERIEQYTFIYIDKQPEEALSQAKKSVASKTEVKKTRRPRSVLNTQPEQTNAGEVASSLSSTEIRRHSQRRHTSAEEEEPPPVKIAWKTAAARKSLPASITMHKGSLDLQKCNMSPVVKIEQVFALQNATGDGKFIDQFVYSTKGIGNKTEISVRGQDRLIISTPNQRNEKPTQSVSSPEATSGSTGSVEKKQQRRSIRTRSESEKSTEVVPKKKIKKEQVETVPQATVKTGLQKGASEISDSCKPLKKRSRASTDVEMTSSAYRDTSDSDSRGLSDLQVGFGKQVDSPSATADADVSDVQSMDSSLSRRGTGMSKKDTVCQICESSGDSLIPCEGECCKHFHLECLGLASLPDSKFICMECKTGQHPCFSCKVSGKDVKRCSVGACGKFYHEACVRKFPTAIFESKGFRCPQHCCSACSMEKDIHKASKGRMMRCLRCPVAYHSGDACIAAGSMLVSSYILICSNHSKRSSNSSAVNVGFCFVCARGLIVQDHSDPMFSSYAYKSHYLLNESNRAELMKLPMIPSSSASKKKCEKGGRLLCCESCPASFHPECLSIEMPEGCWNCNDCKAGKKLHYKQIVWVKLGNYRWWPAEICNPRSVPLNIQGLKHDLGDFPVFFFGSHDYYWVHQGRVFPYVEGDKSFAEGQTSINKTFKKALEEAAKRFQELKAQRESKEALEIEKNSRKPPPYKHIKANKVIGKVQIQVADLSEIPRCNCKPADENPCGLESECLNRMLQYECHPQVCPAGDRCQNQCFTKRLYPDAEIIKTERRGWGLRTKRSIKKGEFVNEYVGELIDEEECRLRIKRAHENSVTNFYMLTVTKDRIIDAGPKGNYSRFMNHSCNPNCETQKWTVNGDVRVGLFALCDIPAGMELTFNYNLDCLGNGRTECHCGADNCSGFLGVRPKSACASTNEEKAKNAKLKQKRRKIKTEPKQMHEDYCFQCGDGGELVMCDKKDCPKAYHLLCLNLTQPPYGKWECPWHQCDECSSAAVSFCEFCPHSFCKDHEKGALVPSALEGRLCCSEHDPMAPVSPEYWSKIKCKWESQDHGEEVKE
In words: Methyl transferase scintillation proximity assay. In kind it is biochemical. As to conditions: average of two measurements, read-out: MTases Inhibition (%). In a few lines:
as §1

For assay [10], the target named is T6, SETD7 (Homo sapiens, UniProt Q8WTS6).
T6 construct: purchased DiscoverX BROMOscan (bromodomains); SGC in-house methyltransferase panel
T6 sequence (Q8WTS6 1-366): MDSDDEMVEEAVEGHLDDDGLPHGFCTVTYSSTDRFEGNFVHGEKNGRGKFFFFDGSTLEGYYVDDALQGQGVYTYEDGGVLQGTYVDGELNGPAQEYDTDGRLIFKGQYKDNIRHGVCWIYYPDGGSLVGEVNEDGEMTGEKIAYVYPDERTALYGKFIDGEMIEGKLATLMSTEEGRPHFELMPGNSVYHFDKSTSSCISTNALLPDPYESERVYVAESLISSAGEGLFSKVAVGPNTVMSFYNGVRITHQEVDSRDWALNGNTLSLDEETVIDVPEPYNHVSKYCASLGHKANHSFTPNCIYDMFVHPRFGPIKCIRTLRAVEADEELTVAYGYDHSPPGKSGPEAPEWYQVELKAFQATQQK
In words: Methyl transferase scintillation proximity assay. In kind it is biochemical. As to conditions: average of two measurements, read-out: MTases Inhibition (%). In a few lines: as §1

The target of assay [11] is T7, SETDB1 (Homo sapiens, UniProt Q15047).
T7 construct: purchased DiscoverX BROMOscan (bromodomains); SGC in-house methyltransferase panel
In words: Methyl transferase scintillation proximity assay. Conditions: average of two measurements, read-out: MTases Inhibition (%). In kind it is biochemical. The gist of the method:
as §1

Setting [12] is: KD (BROMOscan), sheet prints no unit (nM).

Where two headings read alike, the source gives them in different places. Where only a bound is given, the exact number is not on record here.

BRD2(1,2), sequence (P25440 71-455 limits assumed): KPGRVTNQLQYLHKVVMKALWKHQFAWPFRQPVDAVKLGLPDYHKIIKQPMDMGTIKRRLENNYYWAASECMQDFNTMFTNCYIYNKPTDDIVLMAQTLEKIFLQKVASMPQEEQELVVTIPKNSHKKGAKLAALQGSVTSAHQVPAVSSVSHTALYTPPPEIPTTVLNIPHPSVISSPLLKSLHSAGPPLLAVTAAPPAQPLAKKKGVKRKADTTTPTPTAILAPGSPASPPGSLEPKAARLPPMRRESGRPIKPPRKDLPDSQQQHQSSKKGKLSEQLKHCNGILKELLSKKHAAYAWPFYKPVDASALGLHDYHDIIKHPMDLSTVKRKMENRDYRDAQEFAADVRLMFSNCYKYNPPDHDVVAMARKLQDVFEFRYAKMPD
T3 sequence (Q9Y6K1 whole entry, looked up): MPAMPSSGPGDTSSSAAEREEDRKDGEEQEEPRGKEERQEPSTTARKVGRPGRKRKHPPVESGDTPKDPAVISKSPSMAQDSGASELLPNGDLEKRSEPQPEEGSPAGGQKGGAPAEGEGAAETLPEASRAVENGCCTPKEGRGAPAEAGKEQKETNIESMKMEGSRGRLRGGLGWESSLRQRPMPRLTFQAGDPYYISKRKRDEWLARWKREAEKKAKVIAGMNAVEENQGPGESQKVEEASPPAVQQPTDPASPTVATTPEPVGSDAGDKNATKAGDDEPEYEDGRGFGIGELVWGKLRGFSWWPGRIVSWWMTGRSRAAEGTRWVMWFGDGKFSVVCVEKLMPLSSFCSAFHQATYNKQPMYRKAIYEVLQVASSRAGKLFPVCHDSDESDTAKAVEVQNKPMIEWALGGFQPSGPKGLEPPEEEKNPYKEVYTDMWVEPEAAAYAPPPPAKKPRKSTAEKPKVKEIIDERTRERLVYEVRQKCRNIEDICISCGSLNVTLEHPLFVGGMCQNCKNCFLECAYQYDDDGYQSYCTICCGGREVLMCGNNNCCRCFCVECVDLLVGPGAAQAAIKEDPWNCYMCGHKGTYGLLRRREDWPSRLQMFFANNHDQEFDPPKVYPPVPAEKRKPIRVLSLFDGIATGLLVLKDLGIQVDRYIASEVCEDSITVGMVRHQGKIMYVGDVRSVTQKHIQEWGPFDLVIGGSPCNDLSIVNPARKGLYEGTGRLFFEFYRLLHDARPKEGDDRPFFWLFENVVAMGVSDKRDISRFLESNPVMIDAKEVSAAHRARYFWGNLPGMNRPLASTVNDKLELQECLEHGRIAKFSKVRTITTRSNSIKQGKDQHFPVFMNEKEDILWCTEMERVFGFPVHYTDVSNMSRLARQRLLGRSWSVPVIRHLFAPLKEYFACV
T3 sequence (Q9UJW3 whole entry partner): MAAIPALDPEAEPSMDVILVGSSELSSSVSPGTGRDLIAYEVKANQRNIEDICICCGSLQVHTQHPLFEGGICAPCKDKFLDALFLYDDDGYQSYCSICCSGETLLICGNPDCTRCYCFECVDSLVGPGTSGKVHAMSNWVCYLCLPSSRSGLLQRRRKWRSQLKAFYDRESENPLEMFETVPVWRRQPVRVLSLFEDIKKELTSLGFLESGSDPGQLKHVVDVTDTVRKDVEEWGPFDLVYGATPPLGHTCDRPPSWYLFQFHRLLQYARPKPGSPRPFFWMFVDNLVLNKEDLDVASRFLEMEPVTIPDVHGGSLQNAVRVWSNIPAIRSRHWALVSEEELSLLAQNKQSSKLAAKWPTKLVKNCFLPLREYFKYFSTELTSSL

What is called Kd is the concentration at which binding is half-saturated. `COc1ccc(CCc2nc3cc(-c4c(C)noc4C)ccc3n2C[C@H](C)N2CCOCC2)cc1Cl` [SGC-CBP30]: the dissociation constant (Kd) is over 30000 nM in assay [1] (setting [12]); over 100000 nM in assay [1] (KD, BROMOscan, BAZ2B); 0.65 µM in [2]; 0.587 µM in [3]; over 30000 nM in assay [4] (setting [12]); over 100000 nM in assay [4] (KD, BROMOscan, PBRM1(2)). This compound registered a dissociation constant (Kd) in assay [5] (KD, BROMOscan, WDR9(2)) of 12000 nM.
For `CCCOc1ccn2c(C(C)=O)cc(-c3ccccc3S(C)(=O)=O)c2c1` [GSK2801], the Kd in [2] is 19 µM; in assay [3] it was 41 µM; in assay [4] (setting [12]), over 30000 nM; in assay [4] (KD, BROMOscan Gene Symbol PBRM1(2)), over 100000 nM; in assay [5] (setting [12]), over 30000 nM; in [5] (KD, BROMOscan Gene Symbol WDR9(2)), over 100000 nM.
For the compound `Cc1noc(C)c1-c1ccc2c(c1)nc(CCc1ccccc1)n2CCN1CCOCC1` [CBP30-298], the dissociation constant Kd in assay [1] (BROMOscan Gene Symbol BAZ2B) was over 50000 nM; in assay [1] (read-out: KD (BROMOscan), sheet prints no unit (nM)), over 30000 nM; in assay [4] (BROMOscan Gene Symbol PBRM1(2)), 42000 nM; in assay [5] (BROMOscan Gene Symbol WDR9(2)), 30000 nM.
One may read the inhibition as the drop in the measured response relative to a control, in per cent. `Cc1nnc2c3ccccc3c(N[C@@H](C)[C@H](c3ccccc3)N(C)C)nn12` [L-Moses]: the inhibition at 10 µM turned out to be 3% in [6]; 2% in assay [7]; 20% in [8]; 5% in assay [9]; 7% in [10]; 1% in assay [11].
For the compound `O=C(C=CN1CC2CC1CN2c1ccccn1)c1ccccc1O` (centres unmarked) [PFI-3], the Kd is over 30000 nM in assay [1] (setting [12]); over 100000 nM in [1] (KD, BAZ2B); over 30000 nM in [5] (setting [12]); over 100000 nM in assay [5] (KD, WDR9(2)).
As to `CCC(=O)N1CCOc2c(cc(-c3ccc(OC)c(OC)c3)cc2OCC2CCCN(C)C2)C1` (centres unmarked) [I-CBP112], the dissociation constant Kd in assay [1] (KD, BROMOscan Gene Symbol BAZ2B) was 28000 nM; in [2] it was 6.9 µM; in [3], 2.85 µM; in assay [4] (setting [12]), over 30000 nM; in assay [4] (KD, PBRM1(2)), over 100000 nM; in assay [5] (KD, WDR9(2)) it was 59000 nM.
As for `CN(C)CCCOc1ccc(-c2cc(NCCCn3cccn3)nc(S(C)(=O)=O)n2)cc1` [TP-238], the inhibition at 10 µM was 3% in [6]; 8% in [7]; 17% in assay [8]; 15% in [9]; -1% in assay [10]; -1% in assay [11].
For the compound `O=C(O)c1ccccc1O` [Salicylic Acid], the Kd was over 1.4e+07 nM in assay [1] (KD, BAZ2B); 7300 µM in assay [2]; over 14000 µM in [3]; 1e+06 nM in assay [4] (KD, PBRM1(2)); over 1.4e+07 nM in assay [5] (KD, WDR9(2)).
